Our source for the Activity values is ChEMBL document CHEMBL2074480, “Characterization of tetrandrine, a potent inhibitor of P-glycoprotein-mediated multidrug resistance” (Cancer Chemother Pharmacol, 2004).

In the series the target is ATP-dependent translocase ABCB1 (Homo sapiens, UniProt P08183). The series can be described thus: TP_TRANSPORTER: drug resistance (vincristine) in KBV200 cells. Type of series: functional, cell-based.
Sequence of ATP-dependent translocase ABCB1 (P08183 whole entry): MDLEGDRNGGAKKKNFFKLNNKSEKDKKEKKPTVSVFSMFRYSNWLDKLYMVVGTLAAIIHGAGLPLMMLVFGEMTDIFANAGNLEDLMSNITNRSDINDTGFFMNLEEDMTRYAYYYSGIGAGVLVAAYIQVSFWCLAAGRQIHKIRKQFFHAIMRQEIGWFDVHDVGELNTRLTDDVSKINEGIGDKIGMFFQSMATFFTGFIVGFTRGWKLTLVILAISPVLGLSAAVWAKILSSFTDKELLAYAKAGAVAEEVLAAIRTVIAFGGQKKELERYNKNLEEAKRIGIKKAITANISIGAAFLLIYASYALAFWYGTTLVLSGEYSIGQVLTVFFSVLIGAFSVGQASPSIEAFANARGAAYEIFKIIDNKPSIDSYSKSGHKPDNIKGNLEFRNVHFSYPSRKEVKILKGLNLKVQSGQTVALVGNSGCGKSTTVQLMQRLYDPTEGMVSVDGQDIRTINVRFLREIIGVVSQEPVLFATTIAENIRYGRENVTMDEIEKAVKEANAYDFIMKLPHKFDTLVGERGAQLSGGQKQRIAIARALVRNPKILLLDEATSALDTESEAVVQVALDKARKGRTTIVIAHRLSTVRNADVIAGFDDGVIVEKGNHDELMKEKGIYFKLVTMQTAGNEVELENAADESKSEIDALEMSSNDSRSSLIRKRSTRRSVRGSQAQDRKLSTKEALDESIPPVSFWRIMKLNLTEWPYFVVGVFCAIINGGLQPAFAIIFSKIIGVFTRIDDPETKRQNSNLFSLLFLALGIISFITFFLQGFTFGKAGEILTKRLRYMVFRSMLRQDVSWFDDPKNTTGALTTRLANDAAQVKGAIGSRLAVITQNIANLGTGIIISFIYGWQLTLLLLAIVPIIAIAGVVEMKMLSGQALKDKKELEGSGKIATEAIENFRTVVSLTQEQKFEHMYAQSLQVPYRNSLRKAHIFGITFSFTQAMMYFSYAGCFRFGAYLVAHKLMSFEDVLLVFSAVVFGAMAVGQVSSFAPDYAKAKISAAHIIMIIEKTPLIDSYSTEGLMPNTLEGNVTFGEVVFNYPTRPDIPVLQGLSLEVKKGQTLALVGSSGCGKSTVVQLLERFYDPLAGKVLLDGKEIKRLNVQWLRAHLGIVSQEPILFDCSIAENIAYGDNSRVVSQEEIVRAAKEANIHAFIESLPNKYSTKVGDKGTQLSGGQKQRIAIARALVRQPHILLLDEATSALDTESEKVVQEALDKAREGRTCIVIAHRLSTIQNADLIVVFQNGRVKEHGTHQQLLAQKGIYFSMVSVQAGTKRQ

On to `COc1ccc2cc1Oc1ccc(cc1)C[C@H]1c3cc(c(OC)cc3CCN1C)Oc1c(OC)c(OC)cc3c1[C@H](C2)N(C)CC3` [FANCHININ], for which the Activity entry is “inhibitor [+]”.
